# Source: patent US20040024024A1, “Aromatic sulfone hydroxamates and their use as protease inhibitors” (priority 2001, published 2004)
# Tests used:
# Assay in all cases: In vitro MMP inhibition, Ki determination (fluorogenic substrate II)
# Assay type in all cases: biochemical
# Human recombinant MMP-1 = molecular target: T1, Human recombinant MMP-1 (Homo sapiens, UniProt P03956)
# T1 construct: made in house; host or cells: MMP-1-transfected HT-1080 cells (spent media)
# T1 sequence (P03956 100-469): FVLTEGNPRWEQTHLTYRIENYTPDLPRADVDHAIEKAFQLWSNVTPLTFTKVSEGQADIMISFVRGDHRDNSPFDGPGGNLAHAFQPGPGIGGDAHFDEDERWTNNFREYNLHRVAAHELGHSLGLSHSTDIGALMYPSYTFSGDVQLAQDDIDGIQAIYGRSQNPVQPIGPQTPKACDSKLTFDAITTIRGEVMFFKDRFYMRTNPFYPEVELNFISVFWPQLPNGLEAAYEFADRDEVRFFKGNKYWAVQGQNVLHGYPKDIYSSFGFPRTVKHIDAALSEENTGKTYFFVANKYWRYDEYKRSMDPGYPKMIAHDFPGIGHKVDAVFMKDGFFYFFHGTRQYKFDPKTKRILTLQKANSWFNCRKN
# In short: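 Activated human recombinant MMP-1 (APMA- or trypsin-activated; proenzyme from transfected HT-1080 cells) incubated 1 hr at room temperature with 4 μM MCA/Dpa fluorogenic substrate II at or below Km in Tris buffer pH 7.5 with CaCl2. Fluorescence ex 330/em 420 nm; Ki from Morrison-equation non-linear regression, uncorrected for substrate.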
# Human recombinant MMP-9 = molecular target: T2, Human recombinant MMP-9 (Homo sapiens, UniProt P14780)
# T2 construct: made in house; host or cells: MMP-9-transfected HT1080 cells (spent media)
# In short: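 MMP-9 proenzyme purified from transfected HT1080 cell media, activated with APMA, trypsin or recombinant MMP-3; hydroxamates diluted in pH 7.5 Tris/NaCl/CaCl2 buffer. Cleavage of 4 μM MCA/Dpa substrate II followed by fluorescence (ex 330/em 420 nm), 1 h at room temperature. Ki from Morrison-equation fit, substrate at/below Km, uncorrected.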
# Human recombinant MMP-13 = molecular target: T3, Human recombinant MMP-13 (Homo sapiens, UniProt P45452)
# T3 construct: made in house; host or cells: baculovirus / insect cells
# In short: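 Baculovirus-expressed proenzyme, APMA-activated; 4 μM fluorogenic MCA/Dpa peptide substrate (II), at or below Km, in Tris buffer pH 7.5 with CaCl2, 1 hr at room temperature. Fluorescence at 330/420 nm; Ki from non-linear regression with Morrison's equation, not corrected for substrate.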
# [1] = substrate (II) 4 μM, 1 hr room temperature, apparent Ki, values in parenthesis
# T2 sequence (P14780 107-707 limits assumed): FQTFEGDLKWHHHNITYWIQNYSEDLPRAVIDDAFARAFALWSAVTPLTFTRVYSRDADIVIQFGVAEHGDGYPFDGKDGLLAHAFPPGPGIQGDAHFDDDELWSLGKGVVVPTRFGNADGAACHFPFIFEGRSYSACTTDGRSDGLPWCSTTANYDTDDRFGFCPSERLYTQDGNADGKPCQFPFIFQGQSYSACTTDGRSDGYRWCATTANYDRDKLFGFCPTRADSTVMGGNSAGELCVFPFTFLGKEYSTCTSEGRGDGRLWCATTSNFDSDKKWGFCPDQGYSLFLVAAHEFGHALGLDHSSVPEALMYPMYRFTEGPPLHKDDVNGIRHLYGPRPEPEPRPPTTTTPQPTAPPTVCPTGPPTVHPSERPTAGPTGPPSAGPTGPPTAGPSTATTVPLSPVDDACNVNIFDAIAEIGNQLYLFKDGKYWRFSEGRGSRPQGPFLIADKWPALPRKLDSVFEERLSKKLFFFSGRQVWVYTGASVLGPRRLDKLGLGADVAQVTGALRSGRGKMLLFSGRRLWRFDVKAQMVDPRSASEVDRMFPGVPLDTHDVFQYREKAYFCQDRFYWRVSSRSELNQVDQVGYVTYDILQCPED
Structure (SMILES),Ki (Human recombinant MMP-1; value in parenthesis) [nM],Ki (Human recombinant MMP-9; value in parenthesis) [nM],Ki (Human recombinant MMP-13; value in parenthesis) [nM],other results
COCCN1CCC(C(=O)NO)(S(=O)(=O)c2ccc(OCCc3cccc(-c4ccccc4)c3)cc2)CC1 [Example 45],,,,Ki (Human recombinant MMP-1; [1]): > 10000 nM; Ki (Human recombinant MMP-9; [1]): 499 nM; Ki (Human recombinant MMP-13; [1]): 0.62 nM
COCCN1CCC(C(=O)NO)(S(=O)(=O)c2ccc(OCCCc3cccc(-c4ccc(Cl)cc4)c3)cc2)CC1 [Example 50],,,,Ki (Human recombinant MMP-1; [1]): > 10000 nM; Ki (Human recombinant MMP-9; [1]): 304 nM; Ki (Human recombinant MMP-13; [1]): 0.6 nM
COCCN1CCC(C(=O)NO)(S(=O)(=O)c2ccc(OCCCc3cccc(-c4ccc(F)c(F)c4)c3)cc2)CC1 [Example 52],,,,Ki (Human recombinant MMP-1; [1]): > 10000 nM; Ki (Human recombinant MMP-9; [1]): 617 nM; Ki (Human recombinant MMP-13; [1]): 0.81 nM
O=C(NO)C1(S(=O)(=O)c2ccc(OCCCc3nc(-c4ccc(OC(F)(F)F)cc4)no3)cc2)CCN(Cc2ccccc2)CC1 [Example 93],> 10000,1120,9.29,
CC(C)c1ccc(-c2cccc(CCOc3ccc(S(=O)(=O)C4(C(=O)NO)CCOCC4)cc3)c2)cc1 [Example 109],> 10000,> 10000,93.1,
O=C(NO)C1(S(=O)(=O)c2ccc(OCCc3cccc(-c4cc(F)cc(F)c4)c3)cc2)CCOCC1 [Example 110],> 10000,4340,11.4,
O=C(NO)C1(S(=O)(=O)c2ccc(OCCc3cccc(-c4cccc(F)c4)c3)cc2)CCOCC1 [Example 111],> 10000,2680,6.39,
O=C(NO)C1(S(=O)(=O)c2ccc(OCCc3cccc(-c4ccc(OC(F)(F)F)cc4)c3)cc2)CCOCC1 [Example 112],> 10000,8850,51.2,
O=C(NO)C1(S(=O)(=O)c2ccc(OCCc3cccc(-c4ccccc4Cl)c3)cc2)CCOCC1 [Example 114],> 10000,4870,4.2,
Cc1ccccc1-c1cccc(CCOc2ccc(S(=O)(=O)C3(C(=O)NO)CCOCC3)cc2)c1 [Example 116],> 10000,5550,5.1,
Cc1ccc(-c2cccc(CCOc3ccc(S(=O)(=O)C4(C(=O)NO)CCOCC4)cc3)c2)cc1C [Example 117],> 10000,9910,21,
Cc1cc(-c2cccc(CCOc3ccc(S(=O)(=O)C4(C(=O)NO)CCOCC4)cc3)c2)ccc1Cl [Example 118],> 10000,> 10000,18.8,
COc1ccc(-c2cccc(CCOc3ccc(S(=O)(=O)C4(C(=O)NO)CCOCC4)cc3)c2)cc1C [Example 119],> 10000,3950,31.4,
O=C(NO)C1(S(=O)(=O)c2ccc(OCCc3cccc(-c4ccc(Cl)c(Cl)c4)c3)cc2)CCOCC1 [Example 121],> 10000,> 10000,26.9,
O=C(NO)C1(S(=O)(=O)c2ccc(OCCc3cccc(-c4ccc(Cl)cc4Cl)c3)cc2)CCOCC1 [Example 124],> 10000,> 10000,20.1,
O=C(NO)C1(S(=O)(=O)c2ccc(OCCc3cccc(-c4cc(Cl)cc(Cl)c4)c3)cc2)CCOCC1 [Example 126],> 10000,> 10000,81.3,
COCCN1CCC(C(=O)NO)(S(=O)(=O)c2ccc(OCCCc3nc(-c4ccc(CC(C)C)cc4C)no3)cc2)CC1 [Example 128],> 10000,3550,13.8,
NC(=O)c1cccc(-c2noc(CCCOc3ccc(S(=O)(=O)C4(C(=O)NO)CCN(C5CC5)CC4)cc3)n2)c1 [Example 129],> 10000,110,0.27,
COCCN1CCC(C(=O)NO)(S(=O)(=O)c2ccc(OCCCc3nc(-c4ccc(Br)cc4C)no3)cc2)CC1 [Example 135],> 10000,457,0.761,

Structure (SMILES),Ki (Human recombinant MMP-1; value in parenthesis) [nM],Ki (Human recombinant MMP-9; value in parenthesis) [nM],Ki (Human recombinant MMP-13; value in parenthesis) [nM],other results
O=C(NO)C1(S(=O)(=O)c2ccc(OCCCc3nc(C4CCCCC4)no3)cc2)CCN(C2CC2)CC1 [Example 137],> 10000,604,0.976,
Cc1cc(-c2cccc(CCCOc3ccc(S(=O)(=O)C4(C(=O)NO)CCOCC4)cc3)c2)ccc1Cl [Example 166],> 10000,8690,63.4,
Cc1cc(-c2cccc(CCCOc3ccc(S(=O)(=O)C4(C(=O)NO)CCOCC4)cc3)c2)ccc1F [Example 168],> 10000,6500,27.3,
O=C(NO)C1(S(=O)(=O)c2ccc(OCCCc3cccc(-c4ccc(Cl)c(Cl)c4)c3)cc2)CCOCC1 [Example 169],> 10000,6500,20.4,
O=C(NO)C1(S(=O)(=O)c2ccc(OCCCc3cccc(-c4ccc(F)c(F)c4)c3)cc2)CCOCC1 [Example 170],> 10000,1500,6.79,
O=C(NO)C1(S(=O)(=O)c2ccc(OCCCc3cccc(-c4ccc(Cl)cc4Cl)c3)cc2)CCOCC1 [Example 171],> 10000,6600,12.5,
O=C(NO)C1(S(=O)(=O)c2ccc(OCCCc3cccc(-c4cc(Cl)cc(Cl)c4)c3)cc2)CCOCC1 [Example 172],> 10000,9440,71.1,
CCCCc1ccc(-c2noc(CCCOc3ccc(S(=O)(=O)C4(C(=O)NO)CCOCC4)cc3)n2)c(C)c1 [Example 183],> 10000,2510,15.1,
COCCN1CCC(C(=O)NO)(S(=O)(=O)c2ccc(OCCCc3nc(-c4ccc(C5(c6ccccc6)CC5)cc4)no3)cc2)CC1 [Example 185],> 10000,220,3.73,
COCCN1CCC(C(=O)NO)(S(=O)(=O)c2ccc(OCCCc3nc(-c4cccc5ccccc45)no3)cc2)CC1 [Example 199],> 10000,59.5,3.09,
O=C(NO)C1(S(=O)(=O)c2ccc(OCCCc3ccc(F)c(-c4ccccc4)c3)cc2)CCOCC1 [Example 504],,,,Ki (Human recombinant MMP-1; value in parentheses): > 10000 nM; Ki (Human recombinant MMP-9; value in parentheses): 2310 nM; Ki (Human recombinant MMP-13; value in parentheses): 4.65 nM
CCCC(=O)CCCOc1ccc(S(=O)(=O)C2(C(=O)NO)CCOCC2)cc1 [Example 505],,,,Ki (Human recombinant MMP-1; value in parentheses): 850 nM; Ki (Human recombinant MMP-9; value in parentheses): 10.2 nM; Ki (Human recombinant MMP-13; value in parentheses): 0.81 nM
CCCCC(=O)CCCOc1ccc(S(=O)(=O)C2(C(=O)NO)CCOCC2)cc1 [Example 506],,,,Ki (Human recombinant MMP-1; value in parentheses): 1470 nM; Ki (Human recombinant MMP-9; value in parentheses): 11.4 nM; Ki (Human recombinant MMP-13; value in parentheses): 0.23 nM
CCCCCCCOc1ccc(S(=O)(=O)C2(C(=O)NO)CCOCC2)cc1 [Example 507],,,,Ki (Human recombinant MMP-1; value in parentheses): 3590 nM; Ki (Human recombinant MMP-9; value in parentheses): 0.44 nM; Ki (Human recombinant MMP-13; value in parentheses): 0.19 nM
COCCN1CCC(C(=O)NO)(S(=O)(=O)c2ccc(OCCCc3cncc(-c4ccccc4)c3)cc2)CC1 [Example 508],,,,Ki (Human recombinant MMP-1; value in parentheses): 4850 nM; Ki (Human recombinant MMP-9; value in parentheses): 160 nM; Ki (Human recombinant MMP-13; value in parentheses): 0.141 nM
COCCN1CCC(C(=O)NO)(S(=O)(=O)c2ccc(OCCCc3cccc(-c4cccnc4)c3)cc2)CC1 [Example 509],,,,Ki (Human recombinant MMP-1; value in parentheses): > 10000 nM; Ki (Human recombinant MMP-9; value in parentheses): 50.9 nM; Ki (Human recombinant MMP-13; value in parentheses): 0.297 nM
COCCN1CCC(C(=O)NO)(S(=O)(=O)c2ccc(OCCCc3cccc(-c4cccs4)c3)cc2)CC1 [Example 510],,,,Ki (Human recombinant MMP-1; value in parentheses): > 10000 nM; Ki (Human recombinant MMP-9; value in parentheses): 39.8 nM; Ki (Human recombinant MMP-13; value in parentheses): 0.25 nM
COCCN1CCC(C(=O)NO)(S(=O)(=O)c2ccc(OCCCc3cccc(-c4cccc(F)c4)c3)cc2)CC1 [Example 511],,,,Ki (Human recombinant MMP-1; value in parentheses): > 10000 nM; Ki (Human recombinant MMP-9; value in parentheses): 38.5 nM; Ki (Human recombinant MMP-13; value in parentheses): 1.36 nM
